From ChEMBL document CHEMBL3091275, “Oxime-based inhibitors of glucose transporter 1 displaying antiproliferative effects in cancer cells” (Bioorg Med Chem Lett, 2013)
Activity calls are given as the source filed them. The calls are words filed in the database; no cut-off is given here.

Tests used:
Estrogen receptor beta = Estrogen receptor beta (Homo sapiens, UniProt Q92731); experiment: Displacement of [3H]E2 from full-length human ERbeta after 18 to 24 hrs by radiometric assay
NCI-H1299 = experiment: Cytotoxicity against human H1299 cells assessed as growth inhibition at 30 uM after 48 hrs by MTT assay; type: functional, cell-based
[1] = biological target: T1, Solute carrier family 2, facilitated glucose transporter member 1 (Homo sapiens) (UniProt P11166); experiment: Inhibition of GLUT1 in human H1299 cells assessed as inhibition of 2-deoxy-D-[3H]-glucose uptake at 30 uM incubated for 15 mins prior to 2-deoxy-D-[3H]-glucose addition measured after 30 mins by liquid scintillation counting analysis; type: cell-based
T1 sequence (whole entry): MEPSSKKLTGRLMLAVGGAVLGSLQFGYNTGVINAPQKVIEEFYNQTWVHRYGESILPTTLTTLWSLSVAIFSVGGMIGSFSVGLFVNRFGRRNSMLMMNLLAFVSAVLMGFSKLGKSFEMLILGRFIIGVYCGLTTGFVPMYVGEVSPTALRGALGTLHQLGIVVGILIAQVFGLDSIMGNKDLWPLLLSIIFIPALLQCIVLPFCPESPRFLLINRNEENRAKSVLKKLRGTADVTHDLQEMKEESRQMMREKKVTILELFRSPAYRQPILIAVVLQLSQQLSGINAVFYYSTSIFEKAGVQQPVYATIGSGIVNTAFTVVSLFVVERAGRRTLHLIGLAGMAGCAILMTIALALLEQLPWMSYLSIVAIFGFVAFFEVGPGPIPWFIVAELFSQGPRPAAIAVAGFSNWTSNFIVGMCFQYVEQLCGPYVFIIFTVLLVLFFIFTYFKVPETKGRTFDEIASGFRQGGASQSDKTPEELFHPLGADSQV

[2] = Cytotoxicity against human H1299 cells assessed as growth inhibition after 48 hrs by MTT assay; type: functional, cell-based; conditions: NCI-H1299, 48 h
[3] = biological target: T2, Solute carrier family 2, facilitated glucose transporter member 1 (Homo sapiens, UniProt P11166); experiment: Inhibition of GLUT1 in human H1299 cells assessed as inhibition of 2-deoxy-D-[3H]-glucose uptake incubated for 15 mins prior to 2-deoxy-D-[3H]-glucose addition measured after 30 mins by liquid scintillation counting analysis; type: cell-based
T2 sequence (P11166 whole entry): T1 sequence (whole entry)

Estrogen receptor = biological target: T3, Estrogen receptor (Homo sapiens, UniProt P03372); experiment: Binding affinity to human estrogen receptor assessed as decrease in estradiol-dependent beta-galactosidase activity
T3 sequence (P03372 whole entry): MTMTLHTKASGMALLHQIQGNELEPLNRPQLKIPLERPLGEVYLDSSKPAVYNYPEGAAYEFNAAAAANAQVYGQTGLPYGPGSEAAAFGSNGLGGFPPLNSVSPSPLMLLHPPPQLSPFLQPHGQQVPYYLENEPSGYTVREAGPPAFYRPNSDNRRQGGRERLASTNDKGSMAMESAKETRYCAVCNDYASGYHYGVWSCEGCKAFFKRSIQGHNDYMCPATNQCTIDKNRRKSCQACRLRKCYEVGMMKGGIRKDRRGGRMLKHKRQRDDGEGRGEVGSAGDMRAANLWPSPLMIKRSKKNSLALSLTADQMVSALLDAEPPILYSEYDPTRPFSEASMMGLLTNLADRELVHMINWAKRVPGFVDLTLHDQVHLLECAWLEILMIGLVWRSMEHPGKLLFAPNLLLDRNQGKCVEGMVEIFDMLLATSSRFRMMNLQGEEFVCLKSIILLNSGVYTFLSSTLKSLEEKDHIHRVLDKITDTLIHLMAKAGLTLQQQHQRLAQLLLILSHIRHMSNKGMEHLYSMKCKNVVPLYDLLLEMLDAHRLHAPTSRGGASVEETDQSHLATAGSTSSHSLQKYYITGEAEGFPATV

Chain of Estrogen receptor beta (Q92731 whole entry): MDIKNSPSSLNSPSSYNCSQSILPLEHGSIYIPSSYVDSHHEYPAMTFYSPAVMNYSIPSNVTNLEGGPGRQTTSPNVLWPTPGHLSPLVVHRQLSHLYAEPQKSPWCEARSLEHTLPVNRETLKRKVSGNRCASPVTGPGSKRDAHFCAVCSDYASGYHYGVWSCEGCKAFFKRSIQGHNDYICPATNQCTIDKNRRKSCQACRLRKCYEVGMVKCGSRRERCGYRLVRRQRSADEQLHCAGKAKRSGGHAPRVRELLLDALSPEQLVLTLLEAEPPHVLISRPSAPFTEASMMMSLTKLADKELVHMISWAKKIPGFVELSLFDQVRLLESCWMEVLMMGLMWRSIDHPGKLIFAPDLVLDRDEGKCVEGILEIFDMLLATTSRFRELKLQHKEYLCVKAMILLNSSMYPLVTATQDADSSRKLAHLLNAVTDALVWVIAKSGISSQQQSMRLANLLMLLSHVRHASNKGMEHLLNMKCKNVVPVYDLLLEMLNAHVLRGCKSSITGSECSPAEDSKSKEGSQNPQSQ

| inhibition [1] | IC50 [3] [µM] | Compound | IC50 [2] [µM] | also measured |
| --- | --- | --- | --- | --- |
| Active | – | O/N=C/c1cc(-c2ccc(O)c(F)c2)ccc1O | – | Kd (Estrogen receptor beta): 0.051 µM; growth inhibition (GI) (NCI-H1299): Active |
| Active | – | COc1ccc(-c2ccc(/C=N/O)c(O)c2C)cc1 | – | – |
| Active | – | C/C(=N\O)c1ccc(-c2ccc(O)c(F)c2)c(Cl)c1O | – | – |
| – | 10.6 | C/C(=N\O)c1ccc(-c2ccc(O)cc2)c(Cl)c1O | 34.8 | – |
| Active | – | O/N=C/c1c(O)ccc(-c2ccc(O)cc2)c1Cl | – | – |
| – | 15.5 | COc1ccc(-c2ccc(/C(C)=N/O)c(O)c2Cl)cc1F | 39.6 | – |
| – | 10.9 | O=C(Oc1cccc(F)c1OC(=O)c1cccc(O)c1)c1cccc(O)c1 | 20.4 | – |
| Active | – | O/N=C/c1cc(-c2ccc(O)cc2)ccc1O | – | – |
| Active | – | O/N=C/c1c(O)ccc(-c2ccc(O)c(F)c2)c1Cl | – | – |
| Active | – | O/N=C/c1c(O)ccc(-c2ccc(O)cc2)c1-c1ccc(O)cc1 | – | – |
| – | 23.4 | COc1ccc(-c2ccc(O)c(/C=N/O)c2)cc1 | 20.4 | – |
| – | 8.5 | COc1ccc(-c2ccc(O)c(/C=N/O)c2)cc1F | 14.1 | – |
| Active | – | Cc1c(-c2ccc(O)cc2)ccc(/C=N/O)c1O | – | – |
| Active | – | N#Cc1c(-c2ccc(O)cc2)ccc(/C=N/O)c1O | – | – |

| Compound | inhibition [1] | IC50 [3] [µM] | IC50 [2] [µM] | also measured |
| --- | --- | --- | --- | --- |
| O=C(CCc1ccc(O)cc1)c1c(O)cc(O)cc1O [PHLORETIN] | – | 21.4 | 54 | IC50 (Estrogen receptor): 0.3 µM |
